# Data: patent US9839618B2, “Compositions and methods relating to proliferative diseases” (The Penn State Research Foundation, priority 2010, dated 2017)
# Tests used:
# [1] = test system: non-melanoma cancer cell lines; assay: MTS assay, leelamine on non-melanoma cancer cell lines; assay type: cell-based; details: breast, lung, prostate, connective tissue, pancreas, colon lines
# Method: The efficacy of leelamine to kill other cancer types is measured and the IC50 for cell lines derived from carcinomas of breast, lung, prostate, connective tissue, pancreas and colon determined. The MTS assay as described in Sharma, A. et al., Clin Cancer Res, 2009, 15:1674-85; and Madhunapantula, S. V. et al., Mol Cancer Ther, 2008, 7:1297-308 is used to establish the IC50 at 24, 48 and 72 hours of leelamine treatment for normal human epidermal melanocytes (FOM103), normal skin fibroblast cells (FF2441), normal skin keratinocytes (HFK) and compared to melanocytic lesion cells from the radial-, vertical- and metastatic melanoma stages. 5×10^3 cells per well in 100 μL of media are plated and grown in a 96-well plate for 48 to 72 hours and treated with either DMSO vehicle control or 0.62 to 40 μmol/L of leelamine for 24, 48 or 72 hours. IC50 values for each compound in μmol/L for respective cell lines are measured from three independent experiments using GraphPad Prism version 4.01 (GraphPad Software, La Jolla, Calif.). Leelamine is found to be not toxic to normal cells and effective to kill melanoma cells as well as non-melanoma cancer cells as shown in Table 1 in FIG. 20. Leelamine is 3- to 4-fold more specific at killing metastatic melanoma than normal cells, supporting cancer therapeutic utility at concentrations<2 μmol/L.
# [2] = test system: UACC 903 and 1205 Lu cells; assay: Caspase-3/7 apoptosis assay; assay type: cell-based, human; details: 0.62 to 10 μmol/L, 24 hours
# Method: The mechanistic basis of leelamine's activity to inhibit melanoma cell growth is determined by examining the effect of leelamine on 1) cell viability using the MTS assay; 2) proliferation using a BrdU incorporation assay; 3) apoptosis using an assay for caspase-3/7 activity; and 4) cell cycle analysis. The MTS assay as described in Sharma, A. et al., Clin Cancer Res, 2009, 15:1674-85; and Madhunapantula, S. V. et al., Mol Cancer Ther, 2008, 7:1297-308 is used to assay cell viability. Rates of proliferation and apoptosis are measured by seeding 5×10^3 cells in 96-well plates, followed by treatment with 0.62 to 10 μmol/L of leelamine for 24 hours. Proliferating and apoptotic cells are quantified using a colorimetric cell proliferation ELISA BrdU kit (Roche diagnostics, Indianapolis, Ind.) or Apo-ONE Homogenous caspase-3/7 assay kit (Promega, Madison, Wis.), respectively, as described in Sharma, A. et al., Clin Cancer Res, 2009, 15:1674-85; and Madhunapantula, S. V. et al., Mol Cancer Ther, 2008, 7:1297-308.
# [3] = test system: normal cells (melanocytes FOM103, fibroblasts FF2441, keratinocytes HFK); assay: MTS assay, leelamine on normal cells; assay type: cell-based; details: Homo sapiens, 72 hour exposure, read-out: concentration to kill 50% of normal cells
# Method: (§1) The efficacy of leelamine to kill other cancer types is measured and the IC50 for cell lines derived from carcinomas of breast, lung, prostate, connective tissue, pancreas and colon determined. The MTS assay as described in Sharma, A. et al., Clin Cancer Res, 2009, 15:1674-85; and Madhunapantula, S. V. et al., Mol Cancer Ther, 2008, 7:1297-308 is used to establish the IC50 at 24, 48 and 72 hours of leelamine treatment for normal human epidermal melanocytes (FOM103), normal skin fibroblast cells (FF2441), normal skin keratinocytes (HFK) and compared to melanocytic lesion cells from the radial-, vertical- and metastatic melanoma stages. […] IC50 values for each compound in μmol/L for respective cell lines are measured from three independent experiments using GraphPad Prism version 4.01 (GraphPad Software, La Jolla, Calif.). […]
# (§2) 5×10^3 cells per well in 100 μL of media are plated and grown in a 96-well plate for 48 to 72 hours and treated with either DMSO vehicle control or 0.62 to 40 μmol/L of leelamine for 24, 48 or 72 hours. IC50 values for each compound in μmol/L for respective cell lines are measured from three independent experiments using GraphPad Prism version 4.01 (GraphPad Software, La Jolla, Calif.).
# [4] = test system: cell lines established from melanocytic lesions or melanomas; assay: MTS assay, leelamine on melanocytic lesion and melanoma cell lines; assay type: cell-based; details: 72 hour exposure; read-out: concentration to kill 50% of cells
# Method: as §1, §2
# [5] = test system: GFP expressing UACC 903 melanoma cells in skin reconstructs; assay: Topical treatment of melanoma tumors in skin reconstructs; assay type: cell-based, human; details: topical 2.5, 5 and 10 uM for 8 days
# Method: In this example, the effect of leelamine on melanoma tumors developing in skin reconstructs is tested by topical application. Skin reconstructs are generated by mixing GFP expressing UACC 903 melanoma cells with human normal fibroblasts (FF2441) and keratinocytes (HFK) followed by growing in a 37° C. incubator for 7 days. Beginning from day 8, completely developed skins containing melanoma tumors are treated with increasing concentrations of Leelamine (2.5, 5 and 10 uM in 200 uL PBS) or PBS vehicle alone for an additional 8 more days. The sizes of developing tumors, in terms of area occupied by GFP are measured. […] Also shown in FIG. 22 are images of control and treated cells.
# [6] = test system: UACC 903 melanoma cells; assay: Natural product library NPL-480 primary screen, MTS viability; assay type: cell-based; details: Homo sapiens, 5 μmol/L, 24 hours, MTS assay, read-out: decrease of cell viability
# Method: Natural product library NPL-480 (from TimTec Inc., Newark, Del.) consisting of 480 compounds derived from plants, animal, bacteria and fungus is screened using MTS assay to identify agents reducing cell growth of melanoma cells. Compounds of the NPL-480 library that are supplied as powders or oils are dissolved in DMSO to a stock concentration of 10 mM and stored at −20° C. DMSO concentrations in the reaction mixture are controlled to not exceed 0.5% (vol/vol). 5×10^3 UACC 903 melanoma cells are plated in 96 well plates for 24 hours followed by treatment with each compound at 5 μmol/L for 24 hours. Viability is measured using the MTS assay as described in Sharma, A. et al., Clin Cancer Res, 2009, 15:1674-85; and Madhunapantula, S. V. et al., Mol Cancer Ther, 2008, 7:1297-308. This primary screen identified 12 compounds effective to decrease melanoma cells viability by ˜50% or more.
smiles,measurement,setting,value
"CC(C)c1ccc2c(c1)CCC1[C@](C)(CN)CCC[C@]21C (stereo partly drawn) [Leelamine, [(1R,4aS)-1,4a-dimethyl-7-(propan-2-yl)-1,2,3,4,4a,9,10,10a-octahydrophenanthren-1-yl]methanamine]",IC50,[1],1 to 10 µM
same,apoptosis (caspase-3/7 activity),[2],increase apoptosis
same,IC50,[3],5 to 8 µM
same,IC50,[4],1 to 3 µM
same,melanoma tumor growth in skin reconstructs (GFP area),[5],inhibits melanoma tumor growth
same,cytotoxicity at 5 µM,[6],~95%
